One test deals with MCF-7 (breast cancer). Briefly: in vitro cytotoxicity against MCF-7. In kind it is cell-based. Particulars: Homo sapiens. The method, then:
(§1) All compounds were evaluated for their in vitro cytotoxicity against four human cancer lines, SF-268 (human glioblastoma carcinoma), MCF-7 (breast cancer), HepG-2 (liver cancer), and A549 (lung cancer), as well as antioxidative activity, α-glucosidase inhibitory activity, and antimicrobial activity against the bacteria Staphylococcus aureus and Bacillus subtilis (Tables S1–S3).
(§2) The details of the experimental procedures for cytotoxic and antioxidative bioassays were described previously in our former paper.

Test [1] is described as follows: antioxidative activity (DPPH radical scavenging). Particulars: for EC50: DPPH radical scavenging; for Inhibition rate antioxidative activity: primary screening, 100 μM. The method, then:
as §1, §2
Background: Loss of DPPH colour is used to gauge radical scavenging.

Another test has as its system Bacillus subtilis. Put plainly: antibacterial assay, Mueller–Hinton broth microdilution. In kind it is cell-based. Particulars: for inhibition at 50 µM: primary screening, read-out: Inhibition rate Bacillus subtilis. As to the method:
(§3) All the compounds were tested for antibacterial activity against Staphylococcus aureus and Bacillus subtilis using the Mueller–Hinton broth microdilution method. Ciprofloxacin was used as a positive control.
A general note: Broth dilution looks for growth in wells or tubes with falling amounts of substance.

Another test concerns Staphylococcus aureus. The description is as above. In kind it is cell-based. Particulars: for inhibition at 50 µM: primary screening, read-out: Inhibition rate Staphylococcus aureus. As to the method: as §3
Test [2] deals with SF-268 (human glioblastoma carcinoma). Put plainly: in vitro cytotoxicity against SF-268. The format is cell-based. The method, then:
as §1, §2

The next test deals with HepG-2 (liver cancer). Put plainly: in vitro cytotoxicity against HepG-2. The format is cell-based. Particulars: Homo sapiens. As to the method: as §1, §2
The next test concerns A549 (lung cancer). Briefly: in vitro cytotoxicity against A549. In kind it is cell-based. As to conditions: Homo sapiens. The method, then: as §1, §2
The subject of test [3] is intersegmental vessel (ISV) formation. Put plainly: zebrafish assay for in vivo anti-angiogenic activity. Particulars: zebrafish embryos. As to the method: The maintenance of zebrafish and the collection of embryos followed the method in the literature. One day after fertilization, the embryos were dechorionated with tweezers in a Petri dish coated with 1% agarose and distributed into small Petri dishes (35 × 10 mm) with 3 mL of assay solution, depending on the drug treatment. The embryos receiving a mixture of DMSO (0.1%) were used as the vehicle-treated control and were equivalent to a “no treatment” group. All the experiments were repeated at least three times, with 20 embryos per group.

Setting [4] is: MCF7, MCF-7 cells, mean ± SD, read-out: IC50 MCF-7.
[5] abbreviates: Table 4, mean ± SD, read-out: MIC Bacillus subtilis.
Setting [6] is: Table 4, mean ± SD, read-out: MIC Staphylococcus aureus.
Where [7] appears, read: SF-268, primary screening, 50 μM, read-out: Inhibition rate SF-268.
Setting [8] is: MCF7, primary screening, 50 μM, read-out: Inhibition rate MCF-7.
The mark [9] stands for this setting: HepG2, primary screening, 50 μM, read-out: Inhibition rate HepG-2.
Where [10] appears, read: A549, primary screening, 50 μM, read-out: Inhibition rate A549.
[11] abbreviates: read-out: MIC against Bacillus subtilis.
[12] abbreviates: read-out: MIC against Staphylococcus aureus.

As usually defined, the IC50 is the concentration needed to halve the response being measured. Broadly, the EC50 is the midpoint of the concentration-response curve. As usually defined, the MIC is the least concentration at which growth counts as inhibited. What is called inhibition is the relative decrease from the control value, in per cent.

Where two headings read alike, the source gives them in different places. Where a SMILES comes first, the peptide text is derived from it. [ ]: non-standard residue; d: D form. NMeF = CN[CH](Cc1ccccc1)C(=O)O; 2Abz = Nc1ccccc1C(=O)O

As to `COc1cccc2c1C(=O)c1c(O)c3c(c(O)c1C2=O)C[C@@](O)(C(=O)CO)C[C@@H]3O[C@H]1C[C@H](N)[C@H](O)[C@H](C)O1` [Adriamycin, reference compound], the IC50 in the test on MCF-7 (breast cancer) (setting [4]) was 2.02 ± 0.04 µM.

In test [1], `O=C1O[C@H]([C@@H](O)CO)C(O)=C1O` [Ascorbic acid, reference compound] yielded an EC50 of 11.3 ± 0.56 µM.

Consider `O=C(O)c1cn(C2CC2)c2cc(N3CCNCC3)c(F)cc2c1=O` [Ciprofloxacin, reference compound], for which the MIC was 0.09 ± 0.003 µg/mL in the test with Bacillus subtilis (setting [5]) and 0.07 ± 0.001 µg/mL in the test on Staphylococcus aureus (setting [6]).

Regarding `CN1C(=O)C(Cc2ccc(O)cc2)NC(=O)CNC(=O)c2ccccc2NC(=O)C1Cc1ccccc1` (stereo not drawn) [Compound 1, asperhiratide] (cyclo([2Abz]GY[NMeF]); configuration not given here), the inhibition at 50 µM in test [2] (setting [7]) was 0.82%; in the test on MCF-7 (breast cancer) (setting [8]), 1.03%; with HepG-2 (liver cancer) (setting [9]), 0.38%; in the test on A549 (lung cancer) (setting [10]), 4.4%; in the test on Bacillus subtilis, 3.87%; in the test with Staphylococcus aureus it was 5.22%. Further, in test [1], the “Inhibition rate antioxidative activity” value came out at 4.30%. In test [3], the “inhibitory effect on intersegmental vessel (ISV) formation” value is “weak inhibitory effect”.

With `CC1C(=O)OCC1CC(OC(=O)c1ccccc1)C(C)(O)C1CCC2(O)C3=CC(=O)C4CC(O)C(O)CC4(C)C3CCC12C` [Compound 2, 2S,3R,5R,9S,10R,13R,14R,17S,20R,22R,24S,27S-29-norcyasterone-22-O-benzoate], the inhibition at 50 µM amounted to 1.43% in test [2] (setting [7]); 1.01% in the test with MCF-7 (breast cancer) (setting [8]); 1.45% with HepG-2 (liver cancer) (setting [9]); 1.21% in the test on A549 (lung cancer) (setting [10]); 0.67% in the test with Bacillus subtilis; 4.34% with Staphylococcus aureus. In test [1], the “Inhibition rate antioxidative activity” value is given as 1.60%.

Take `C=C1CCC2CC1C2(C)C1CCC(C)C(=O)O1` (stereo not drawn) [Compound 3, asperhiratone]: the inhibition at 50 µM in test [2] (setting [7]) was found to be 2.31%; in the test with MCF-7 (breast cancer) (setting [8]) it was 3.24%; with HepG-2 (liver cancer) (setting [9]), 0.13%; in the test on A549 (lung cancer) (setting [10]), 0.83%; in the test with Bacillus subtilis, 9.17%; in the test on Staphylococcus aureus, 7.98%. In addition, the “Inhibition rate antioxidative activity” value in test [1] came out at 2.00%.

`CC(C)[C@H](C)C[C@@H](O)[C@](C)(O)C1CC[C@@]2(O)C3=CC(=O)C4C[C@@H](O)CC[C@]4(C)C3CC[C@]12C` (stereo partly drawn) [Compound 4, schizaeasterone A]: the inhibition at 50 µM in test [2] (setting [7]) was determined as 8.79%; in the test on MCF-7 (breast cancer) (setting [8]) it was 19.1%; with HepG-2 (liver cancer) (setting [9]), 1.57%; in the test on A549 (lung cancer) (setting [10]), 8.6%; with Bacillus subtilis, 5.23%; in the test on Staphylococcus aureus, 19.4%. Further, in test [1], the “Inhibition rate antioxidative activity” value was 2.80%.

`C=C1C[C@]2(O)[C@@]3(C)CCC(=O)C(C)(C)C3=C(O)C(=O)[C@@]2(C)[C@@H]2C(=O)O[C@@](C)(C(=O)OC)C(=O)[C@@]12C` [Compound 5, terretonin]: the inhibition at 50 µM in test [2] (setting [7]) was determined as 4.58%; in the test with MCF-7 (breast cancer) (setting [8]), 5.62%; with HepG-2 (liver cancer) (setting [9]), 3.52%; in the test with A549 (lung cancer) (setting [10]), 2.97%; in the test on Bacillus subtilis it was 8.18%; in the test with Staphylococcus aureus it was 11.8%. Moreover, in test [1], the “Inhibition rate antioxidative activity” value is 1.90%.

As to `CC(C)[C@H](C)/C=C/[C@@H](C)[C@H]1CCC2C3=CC(=O)O[C@@]3(O)CC[C@@]21C` (stereo partly drawn) [Compound 6, demethylincisterol A2], the inhibition at 50 µM in test [2] (setting [7]) is 93.2%; with MCF-7 (breast cancer) (setting [8]), 92.2%; in the test with HepG-2 (liver cancer) (setting [9]), 81.4%; in the test on A549 (lung cancer) (setting [10]), 0.41%; with Bacillus subtilis, 79.6%; in the test on Staphylococcus aureus, 29.4%. The IC50 was 34.8 ± 0.95 µM in test [2] (SF-268 cells, mean ± SD, read-out: IC50 SF-268); 39.4 ± 0.52 µM with MCF-7 (breast cancer) (setting [4]); 43.6 ± 2.08 µM with HepG-2 (liver cancer) (HepG2, HepG-2 cells, mean ± SD, read-out: IC50 HepG-2); 50.2 ± 0.54 µM with A549 (lung cancer) (A549 cells, mean ± SD, read-out: IC50 A549). The “Inhibition rate antioxidative activity” value in test [1] is 1.00%. Further, the MIC with Bacillus subtilis (setting [5]) is 10.3 ± 0.76 µg/mL; with Bacillus subtilis (setting [11]), 10.3 ± 0.76 µM.

As for `CC(C)=CC=CC(C)C1CCC2(C)CC3C(C)=CC(=O)C3C(C(=O)O)=CCC12` (stereo not drawn) [Compound 7, asperophiobolin E], the inhibition at 50 µM was found to be 9.64% in test [2] (setting [7]); 38.8% in the test on MCF-7 (breast cancer) (setting [8]); 40.7% in the test with HepG-2 (liver cancer) (setting [9]); 0.58% in the test on A549 (lung cancer) (setting [10]); 94.3% in the test with Bacillus subtilis; 82.4% in the test with Staphylococcus aureus. Moreover, the “Inhibition rate antioxidative activity” value in test [1] worked out at 3.60%. For the same molecule, the MIC with Bacillus subtilis (setting [5]) is 17 ± 1.25 µg/mL; in the test with Bacillus subtilis (setting [11]), 17 ± 1.25 µM; with Staphylococcus aureus (setting [6]) it was 103 ± 4.5 µg/mL; with Staphylococcus aureus (setting [12]) it was 103 ± 4.5 µM.

For the molecule `COC(=O)[C@]1(Cc2ccc(O)c(CC=C(C)C)c2)OC(=O)C(O)=C1c1ccc(O)cc1` [Compound 8, butyrolactone I], the IC50 is 31.4 ± 1.98 µM in test [2] (SF-268, read-out: IC50 SF-268); 38.6 ± 2.48 µM in the test with MCF-7 (breast cancer) (MCF7, read-out: IC50 MCF-7); 31 ± 3.04 µM in the test on HepG-2 (liver cancer) (HepG2, read-out: IC50 HepG-2); 32.3 ± 2.36 µM with A549 (lung cancer) (A549, read-out: IC50 A549). The inhibition at 50 µM in test [2] (SF-268, read-out: Inhibition rate SF-268) was 41.9%; with MCF-7 (breast cancer) (MCF7, read-out: Inhibition rate MCF-7), 50.7%; in the test on HepG-2 (liver cancer) (HepG2, read-out: Inhibition rate HepG-2), 69.1%; in the test on A549 (lung cancer) (A549, read-out: Inhibition rate A549) it was 21.5%; in the test on Bacillus subtilis it was 91.3%; in the test with Staphylococcus aureus it was 84.4%. Further, the “Inhibition rate antioxidative activity” value in test [1] is on record as 2.50%. Besides, the MIC in the test with Bacillus subtilis (read-out: MIC Bacillus subtilis) amounted to 5.3 ± 0.29 µg/mL; in the test on Bacillus subtilis (setting [11]), 5.3 ± 0.29 µM; with Staphylococcus aureus (read-out: MIC Staphylococcus aureus), 59.54 ± 0.5 µg/mL; in the test on Staphylococcus aureus (setting [12]) it was 59.54 ± 0.5 µM.

Take `COC(=O)[C@]1(Cc2ccc(O)c(CC(O)C(C)(C)O)c2)OC(=O)C(O)=C1c1ccc(O)cc1` (stereo partly drawn) [Compound 9, butyrolactones VI]: the inhibition at 50 µM was determined as 8.47% in test [2] (setting [7]); 17.7% with MCF-7 (breast cancer) (setting [8]); 5.43% in the test on HepG-2 (liver cancer) (setting [9]); 0.29% in the test on A549 (lung cancer) (setting [10]); 3.76% in the test on Bacillus subtilis; 19.6% in the test with Staphylococcus aureus. Also, it took 12.2 ± 0.78 µM to reach a half-maximal effect in test [1] (EC50). For the same molecule, in test [1] (as given in abstract, read-out: radical scavenging activities against DPPH, IC50), the IC50 was 12.2 ± 0.78 µM.

As to `C=CC(C)(C)[C@@]12C[C@H]3C(=O)Nc4ccccc4C(=O)N3[C@H]1N(C=O)c1ccccc12` [Compound 10, epi-aszonalenins B], the inhibition at 50 µM in test [2] (setting [7]) came to 32.9%; in the test on MCF-7 (breast cancer) (setting [8]), 42.2%; with HepG-2 (liver cancer) (setting [9]), 6.7%; in the test on A549 (lung cancer) (setting [10]), 0.73%; with Bacillus subtilis, 0.3%; with Staphylococcus aureus, 12.6%. Also, the “Inhibition rate antioxidative activity” value in test [1] is listed as 0.40%.

Consider `CCCCCCCc1c(O)cc(CC=C(C)C)c(O)c1C=O` [Compound 11, flavoglaucin], for which the inhibition at 50 µM in test [2] (setting [7]) turned out to be 0.81%; in the test on MCF-7 (breast cancer) (setting [8]) it was 0.49%; in the test on HepG-2 (liver cancer) (setting [9]), 0.39%; with A549 (lung cancer) (setting [10]), 1.53%; in the test on Bacillus subtilis, 17.5%; in the test on Staphylococcus aureus, 13%. In addition, the “Inhibition rate antioxidative activity” value in test [1] is reported as 18.20%.

For `COC(=O)C1=C[C@@H](O)[C@@H](O)[C@H](O)C1` [Compound 13, methyl shikimate], the inhibition at 50 µM in test [2] (setting [7]) came out at 0.59%; with MCF-7 (breast cancer) (setting [8]), 0.66%; with HepG-2 (liver cancer) (setting [9]), 0.66%; with A549 (lung cancer) (setting [10]), 0.36%; in the test on Bacillus subtilis, 7.69%; in the test on Staphylococcus aureus, 11.8%. Further, the “Inhibition rate antioxidative activity” value in test [1] turned out to be 32.90%.
